Reference: patent US20100267697A1, “ION CHANNEL MODULATORS” (Wyeth, priority 2006, published 2010)

What follows are compounds tested against T1, human Cav2.2 (composed of the subunits α1, β3 and α2δ) (Homo sapiens, UniProt Q00975) (assay: FLIPR assay (TSA201 cells stably transfected with human Cav2.2 and human Kir2.3, FLUO-4 Ca2+ signal, KCl depolarization)). Conditions: 70 mM KCl depolarization, average value.
T1 construct: expressed in transfected cells
Assay type: cell-based
Procedure, shortened: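 TSA201 cells co-expressing Cav2.2 (α1, β3, α2δ) and Kir2.3 were loaded with FLUO-4 for 1 h at room temperature. Compound in HBSS with 1% DMSO was preincubated 15 min, then cells were depolarized with 70 mM final KCl (with CaCl2 and HEPES) and the Ca2+ fluorescence was read on FLIPR.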

T1 sequence (Q00975 whole entry): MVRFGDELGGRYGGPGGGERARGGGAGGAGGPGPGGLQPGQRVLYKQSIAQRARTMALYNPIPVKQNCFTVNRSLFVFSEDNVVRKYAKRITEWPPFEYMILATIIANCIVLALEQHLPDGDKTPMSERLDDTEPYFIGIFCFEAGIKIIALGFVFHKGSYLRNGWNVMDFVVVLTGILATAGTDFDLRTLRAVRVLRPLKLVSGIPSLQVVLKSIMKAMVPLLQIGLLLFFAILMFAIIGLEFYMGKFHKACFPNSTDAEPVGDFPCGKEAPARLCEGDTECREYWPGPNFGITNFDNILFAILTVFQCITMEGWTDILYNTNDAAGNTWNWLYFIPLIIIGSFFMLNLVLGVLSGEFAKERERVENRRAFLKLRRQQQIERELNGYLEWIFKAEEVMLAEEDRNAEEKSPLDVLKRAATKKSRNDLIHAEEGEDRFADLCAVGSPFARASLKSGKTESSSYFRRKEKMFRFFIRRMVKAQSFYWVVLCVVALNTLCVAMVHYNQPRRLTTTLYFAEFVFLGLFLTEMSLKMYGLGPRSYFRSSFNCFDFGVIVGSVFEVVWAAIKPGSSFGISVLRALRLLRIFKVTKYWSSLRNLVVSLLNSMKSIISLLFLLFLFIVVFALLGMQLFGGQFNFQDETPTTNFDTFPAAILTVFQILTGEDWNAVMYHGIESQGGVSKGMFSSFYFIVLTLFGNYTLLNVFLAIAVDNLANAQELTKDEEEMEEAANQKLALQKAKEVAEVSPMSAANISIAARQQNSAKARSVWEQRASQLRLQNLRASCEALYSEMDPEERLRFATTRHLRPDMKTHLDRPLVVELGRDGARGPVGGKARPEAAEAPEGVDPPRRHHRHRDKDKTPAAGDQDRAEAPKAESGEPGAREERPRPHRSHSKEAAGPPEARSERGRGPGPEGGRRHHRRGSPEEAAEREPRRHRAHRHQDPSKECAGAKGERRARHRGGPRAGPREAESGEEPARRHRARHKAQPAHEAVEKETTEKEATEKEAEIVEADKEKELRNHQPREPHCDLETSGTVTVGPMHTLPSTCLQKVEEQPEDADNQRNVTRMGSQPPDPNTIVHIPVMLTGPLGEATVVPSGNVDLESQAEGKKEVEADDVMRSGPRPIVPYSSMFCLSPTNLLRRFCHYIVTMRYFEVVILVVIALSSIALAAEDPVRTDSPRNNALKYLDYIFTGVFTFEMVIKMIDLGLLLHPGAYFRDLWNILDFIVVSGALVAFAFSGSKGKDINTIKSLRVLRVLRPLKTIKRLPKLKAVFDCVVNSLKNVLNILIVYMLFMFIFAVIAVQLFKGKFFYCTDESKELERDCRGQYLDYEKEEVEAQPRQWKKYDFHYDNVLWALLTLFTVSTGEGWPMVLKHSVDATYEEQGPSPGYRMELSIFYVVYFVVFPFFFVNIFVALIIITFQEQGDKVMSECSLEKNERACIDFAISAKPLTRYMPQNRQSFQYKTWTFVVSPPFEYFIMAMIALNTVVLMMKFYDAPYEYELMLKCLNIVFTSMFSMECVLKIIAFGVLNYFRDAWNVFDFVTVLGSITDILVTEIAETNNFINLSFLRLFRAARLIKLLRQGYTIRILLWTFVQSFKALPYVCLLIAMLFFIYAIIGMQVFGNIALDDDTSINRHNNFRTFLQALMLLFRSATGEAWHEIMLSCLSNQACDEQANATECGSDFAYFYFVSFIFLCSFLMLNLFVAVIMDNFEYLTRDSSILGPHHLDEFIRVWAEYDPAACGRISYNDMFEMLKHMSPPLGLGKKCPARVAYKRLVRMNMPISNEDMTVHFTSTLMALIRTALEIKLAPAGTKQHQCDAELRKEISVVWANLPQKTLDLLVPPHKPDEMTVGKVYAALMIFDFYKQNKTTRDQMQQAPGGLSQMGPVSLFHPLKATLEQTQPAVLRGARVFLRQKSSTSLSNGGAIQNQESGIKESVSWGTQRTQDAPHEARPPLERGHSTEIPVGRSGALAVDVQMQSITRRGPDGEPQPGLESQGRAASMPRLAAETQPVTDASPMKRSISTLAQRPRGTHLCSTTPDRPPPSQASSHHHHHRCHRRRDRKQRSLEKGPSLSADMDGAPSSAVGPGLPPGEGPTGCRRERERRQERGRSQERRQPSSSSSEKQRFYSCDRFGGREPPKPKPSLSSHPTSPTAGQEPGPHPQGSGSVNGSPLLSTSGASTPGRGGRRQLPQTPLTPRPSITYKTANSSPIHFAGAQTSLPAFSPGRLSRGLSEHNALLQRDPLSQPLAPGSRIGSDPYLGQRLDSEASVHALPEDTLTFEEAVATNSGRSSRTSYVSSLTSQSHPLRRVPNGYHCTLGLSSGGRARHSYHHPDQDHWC
T1 sequence (P54284 whole entry partner): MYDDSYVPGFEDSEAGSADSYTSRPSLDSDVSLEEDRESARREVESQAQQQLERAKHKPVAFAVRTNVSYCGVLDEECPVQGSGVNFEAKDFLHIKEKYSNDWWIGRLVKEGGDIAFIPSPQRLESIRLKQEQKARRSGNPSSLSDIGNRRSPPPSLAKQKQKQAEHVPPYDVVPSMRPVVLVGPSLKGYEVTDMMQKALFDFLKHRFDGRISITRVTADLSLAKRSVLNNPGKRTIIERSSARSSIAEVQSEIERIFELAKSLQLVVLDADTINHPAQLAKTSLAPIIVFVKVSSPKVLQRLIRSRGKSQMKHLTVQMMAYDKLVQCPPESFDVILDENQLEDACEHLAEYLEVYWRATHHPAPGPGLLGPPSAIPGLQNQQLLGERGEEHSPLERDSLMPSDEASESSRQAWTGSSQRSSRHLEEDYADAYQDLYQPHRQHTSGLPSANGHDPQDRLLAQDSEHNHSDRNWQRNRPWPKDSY
T1 sequence (P54289 25-946 partner limits assumed): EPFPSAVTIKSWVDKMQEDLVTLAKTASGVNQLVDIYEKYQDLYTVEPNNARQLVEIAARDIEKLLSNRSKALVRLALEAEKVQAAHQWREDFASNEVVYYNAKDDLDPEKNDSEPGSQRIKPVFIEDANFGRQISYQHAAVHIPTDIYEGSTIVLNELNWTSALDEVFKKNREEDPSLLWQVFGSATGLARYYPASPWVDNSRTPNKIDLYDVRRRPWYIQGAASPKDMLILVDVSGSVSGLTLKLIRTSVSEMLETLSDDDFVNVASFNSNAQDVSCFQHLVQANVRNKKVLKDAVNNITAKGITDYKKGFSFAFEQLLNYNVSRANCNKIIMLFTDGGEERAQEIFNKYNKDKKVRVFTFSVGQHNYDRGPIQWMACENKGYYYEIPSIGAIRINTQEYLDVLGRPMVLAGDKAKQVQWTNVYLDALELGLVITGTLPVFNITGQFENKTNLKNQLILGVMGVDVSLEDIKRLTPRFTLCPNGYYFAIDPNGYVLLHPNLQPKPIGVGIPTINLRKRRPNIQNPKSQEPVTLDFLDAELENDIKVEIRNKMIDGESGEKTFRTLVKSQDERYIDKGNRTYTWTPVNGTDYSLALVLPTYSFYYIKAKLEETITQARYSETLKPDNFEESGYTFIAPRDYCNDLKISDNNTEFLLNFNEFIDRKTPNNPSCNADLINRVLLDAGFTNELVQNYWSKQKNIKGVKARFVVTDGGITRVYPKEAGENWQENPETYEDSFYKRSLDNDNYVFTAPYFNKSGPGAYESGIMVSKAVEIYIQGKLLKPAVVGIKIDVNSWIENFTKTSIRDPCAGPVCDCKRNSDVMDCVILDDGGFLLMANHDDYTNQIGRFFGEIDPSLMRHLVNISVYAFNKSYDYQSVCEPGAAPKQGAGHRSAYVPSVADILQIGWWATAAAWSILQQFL
T1 sequence (P54289 947-1103 partner limits assumed): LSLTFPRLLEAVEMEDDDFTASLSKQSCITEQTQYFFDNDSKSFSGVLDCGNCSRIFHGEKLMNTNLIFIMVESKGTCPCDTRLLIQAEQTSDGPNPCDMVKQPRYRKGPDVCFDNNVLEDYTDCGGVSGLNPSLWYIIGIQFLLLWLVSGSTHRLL

Compound | IC50 [µM]
CCN(c1nc(CN(C(=O)C(C)(C)C)c2cccc(F)c2)cs1)C1CC1 [Compound 170, N-({2-[cyclopropyl(ethyl)amino]-1,3-thiazol-4-yl}methyl)-N-(3-fluorophenyl)-2,2-dimethylpropanamide] | 3.9
CN(C)CCCNc1nc(CN(C(=O)C(C)(C)C)c2ccc(F)cc2)cs1 [Compound 154] | 9
CCN(c1nc(CN(C(=O)C2CCCCC2)C2CCCCC2)cs1)C1CC1 [Compound 198, N-cyclohexyl-N-({2-[cyclopropyl(ethyl)amino]-1,3-thiazol-4-yl}methyl)cyclohexanecarboxamide] | 3.3
CCN(c1nc(CN(C(=O)C(C)(C)C)C2CCCCC2)cs1)C1CC1 [Compound 205, N-cyclohexyl-N-({2-[cyclopropyl(ethyl)amino]-1,3-thiazol-4-yl}methyl)-2,2-dimethylpropanamide] | 2.1
CCN(c1nc(CN(C(=O)C(C)(C)C)c2cccc3c2CCCC3)cs1)C1CC1 [Compound 176, N-({2-[cyclopropyl(ethyl)amino]-1,3-thiazol-4-yl}methyl)-2,2-dimethyl-N-(5,6,7,8-tetrahydronaphthalen-1-yl)propanamide] | 7.1
CC(C)(C)C(=O)N(Cc1csc(NC2CCCC2)n1)c1ccc(F)cc1 [Compound 156, N-{[2-(cyclopentylamino)-1,3-thiazol-4-yl]methyl}-N-(4-fluorophenyl)-2,2-dimethylpropanamide] | 3
O=C(C1CCCCC1)N(Cc1csc(N2CCOCC2)n1)C1CCCCC1 [Compound 200, N-cyclohexyl-N-[(2-morpholin-4-yl-1,3-thiazol-4-yl)methyl]cyclohexanecarboxamide] | 6.3
CC(=O)N(Cc1csc(N2CCC(CO)CC2)n1)c1ccc(F)cc1 [Compound 224, N-(4-fluorophenyl)-N-({2-[4-(hydroxymethyl)piperidin-1-yl]-1,3-thiazol-4-yl}methyl)acetamide] | 12.3
CC(=O)N(Cc1ccc(N2CCOCC2)nc1)c1ccc(F)cc1 [Compound 227, N-(4-fluorophenyl)-N-[(6-morpholin-4-ylpyridin-3-yl)methyl]acetamide] | 35
CC(C)(C)C(=O)N(Cc1csc(NC2CCCCC2)n1)c1ccc(F)cc1 [Compound 157, N-{[2-(cyclohexylamino)-1,3-thiazol-4-yl]methyl}-N-(4-fluorophenyl)-2,2-dimethylpropanamide] | 8.8
CC(=O)N(Cc1csc(N2CCOCC2)n1)C1CCCCC1 [Compound 199, N-cyclohexyl-N-[(2-morpholin-4-yl-1,3-thiazol-4-yl)methyl]acetamide] | 27.2
CN1CCN(c2ccc(CN(C(=O)[C@@H]3CCNC3)c3ccc(F)cc3)cn2)CC1 [Compound 259, (3R)-N-(4-fluorophenyl)-N-{[6-(4-methylpiperazin-1-yl)pyridin-3-yl]methyl}pyrrolidine-3-carboxamide] | 59.5
CCN(c1nc(CN(C(C)=O)C2CCCCC2)cs1)C1CC1 [Compound 197, N-cyclohexyl-N-({2-[cyclopropyl(ethyl)amino]-1,3-thiaozl-4-yl}methyl)acetamide] | 5.7
CC(=O)N(Cc1csc(N(C)CCO)n1)c1ccc(F)cc1 [Compound 221, N-(4-fluorophenyl)-N-({2-[(2-hydroxyethyl)(methyl)amino]-1,3-thiazol-4-yl}methyl)acetamide] | 37
CCN(c1nc(CN(C(=O)[C@@H]2CCCN2)c2ccc(F)cc2)cs1)C1CC1 [Compound 122, N-({2-[cyclopropyl(ethyl)amino]-1,3-thiazol-4-yl}methyl)-N-(4-fluorophenyl)-L-prolinamide] | 13.8
CC(=O)N(Cc1ccc(N2CCN(C)CC2)nc1)C1CCCCC1 [Compound 236, N-cyclohexyl-N-{[6-(4-methylpiperzin-1-yl)pyridin-3-yl]methyl}acetamide] | 29.4

Continued, values first:

IC50 [µM] | Compound
5.4 | CC(C)(C)C(=O)N(Cc1csc(-c2cccc(O)c2)n1)c1ccc(F)cc1 [Compound 245, N-(4-fluorophenyl)-N-{[2-(3-hydroxyphenyl)-1,3-thiazol-4-yl]methyl}-2,2-dimethylpropanamide]
6.1 | CNc1nc(CN(C(=O)C(C)(C)C)c2ccc(F)cc2)cs1 [Compound 160, N-(4-fluorophenyl)-2,2-dimethyl-N-{[2-(methylamino)-1,3-thiazol-4-yl]methyl}propanamide]
5 | CC(C)(C)C(=O)N(Cc1csc(-c2ccc(F)cc2)n1)c1ccc(F)cc1 [Compound 247, N-(4-fluorophenyl)-N-{[2-(4-fluorophenyl)-1,3-thiazol-4-yl]methyl}-2,2-dimethylpropanamide]
7.6 | CN(c1ccc(F)cc1)c1nc(CN(C(=O)C(C)(C)C)c2ccc(F)cc2)cs1 [Compound 141, N-(4-fluorophenyl)-N-({2-[(4-fluorophenyl)(methyl)amino]-1,3-thiazol-4-yl}methyl)-2,2-dimethylpropanamide]
5.5 | CC(C)(C)C(=O)N(Cc1csc(-c2cccc(C(F)(F)F)c2)n1)c1ccc(F)cc1 [Compound 242, N-(4-fluorophenyl)-2,2-dimethyl-N-({2-[3-(trifluoromethyl)phenyl]-1,3-thiazol-4-yl]methyl)propanamide]
29.5 | CC(=O)N(Cc1csc(N2CCCN(C)CC2)n1)c1ccc(F)cc1 [Compound 217, N-(4-fluorophenyl)-N-{[2-(4-methyl-1,4-diazepan-1-yl)-1,3-thiazol-4-yl]methyl}acetamide]
3.2 | CC(C)(C)C(=O)N(Cc1csc(Br)n1)c1ccc(F)cc1 [Compound 144, N-[(2-bromo-1,3-thiazol-4-yl)methyl]-N-(4-fluorophenyl)-2,2-dimethylpropanamide]
19.7 | CN(C)CCN1CCN(c2nc(CN(C(=O)C(C)(C)C)c3ccc(F)cc3)cs2)CC1 [Compound 178, N-[(2-{4-[2-(dimethylamino)ethyl]piperazin-1-yl}-1,3-thiazol-4-yl)methyl]-N-(4-fluorophenyl)-2,2-dimethylpropanamide]
9.3 | CC(C)(C)C(=O)N(Cc1csc(N2CCN(Cc3ccccc3)CC2)n1)c1ccc(F)cc1 [Compound 177, N-{[2-(4-benzylpiperazin-1-yl)-1,3-thiazol-4-yl]methyl}-N-(4-fluorophenyl)-2,2-dimethylpropanamide]
10.1 | CC(C)(C)C(=O)N(Cc1csc(-c2cnc3ccccc3c2)n1)c1ccc(F)cc1 [Compound 240, N-(4-fluorophenyl)-2,2-dimethyl-N-[(2-quinolin-3-yl-1,3-thiazol-4-yl)methyl]propanamide]
5.3 | CC(C)(C)C(=O)N(Cc1csc(-c2cccc(F)c2)n1)c1ccc(F)cc1 [Compound 248, N-(4-fluorophenyl)-N-{[2-(3-fluorophenyl)-1,3-thiazol-4-yl]methyl}-2,2-dimethylpropanamide]
8.3 | CC(C)(C)C(=O)N(Cc1csc(N2CCNCC2)n1)c1ccc(F)cc1 [Compound 152, N-(4-fluorophenyl)-2,2-dimethyl-N-[(2-piperazin-1-yl-1,3-thiazol-4-yl)methyl]propanamide]
11 | CC(C)(C)C(=O)N(Cc1csc(N2C[C@@H]3C[C@H]2CN3)n1)c1ccc(F)cc1 [Compound 162, N-({2-[(1S,4S)-2,5-diazabicycl[2.2.1]hept-2-yl]-1,3-thiazol-4-yl}methyl)-N-(4-fluorophenyl)-2,2-dimethylpropanamide]
